Test results taken from US20090018111A1, “Novel Antimicrobial Medicament” (priority 2004, published 2009).

Key:
[1] = tested on: Str. pyogenes Cook; test: Sensitivity test (agar dilution); type: cell-based, Streptococcus pyogenes
Description: (§1) The antibacterial activities were tested against various 18 bacteria (27 standard strains) which are representative bacteria caused clinically infectious disease (Staphylococcus aureus 3 strains, Staphylococcus epidermidis 1 strain, Micrococcus luteus 1 strain, Streptococcus pyogenes 1 strain, Enterococcus faecalis 1 strain, Enterococcus faecium 1 strain, Bacillus subtilis 1 strain, Escherichia coli 3 strains, Klebsiella pneumoniae 1 strain, Proteus mirabilis 1 strain, Proteus vulgaris 2 strains, Pseudomonas aeruginosa 3 strains, Serratia marcescens 2 strains, Enterobacter aerogenes 1 strain, Stenotrophomonas maltophilia 1 strain, Enterobacter cloacae 1 strain, Citrobacter freundii 1 strain, Moraxella catarrhalis 2 strains).
(§2) According to the standard method of Japan Chemotherapeutic Society (Chemotherapy, vol. […], p 76-79 (1981)) the test was carried out using the agar dilution method. After dissolving test samples in distilled water, agar medium containing the test samples was prepared in such a manner that the final concentration became twice serial dilution by pouring serially diluted combination drug solution or a single drug solution into agar medium. As agar medium was used Mueller Hinton Agar medium (MHA). Then, each strain was cultivated over night at 37° C. in an incubator and suspended in buffered saline solution with gelatin (BSG) in the concentration of about 10^6 CFU/ml. The suspension (about 5 μl) containing test strains was inoculated to the medium containing the test samples by Micro Planter.
(§3) When the sample is subjected to sensitivity test, this mixed solution was diluted by twice serial dilution method.
(§4) Furthermore, when the drug is solely used, each test sample was used as it is, and diluted by twice serial dilution method from the maximum concentration to the minimum concentration.
(§5) FIC index based on MIC value was calculated. […] Namely, when FIC index calculated by the following formula is equal or less than 1, the enhanced effect of the combination drug in said ratio is considered as positive. When FIC index is over 1, the enhanced effect of the combination drug in said ratio is considered as negative.
(§6) Formula of FIC index: FIC index=(MIC of Drug A in combination/MIC of Drug A alone)+(MIC of Drug B in combination/MIC of Drug B alone) N.C. in tables means being not calculated.

[2] = tested on: E. faecium ATCC19434; test: Sensitivity test (agar dilution); type: cell-based, Enterococcus faecium
Description: as §1, §2, §3, §4, §5, §6

[3] = tested on: E. cloacae GN7471; test: Sensitivity test (agar dilution); type: cell-based, Enterobacter cloacae
Description: as §1, §2, §3, §4, §5, §6

[4] = tested on: S. marcescens GN6473; test: Sensitivity test (agar dilution); type: cell-based, Serratia marcescens
Description: as §1, §2, §3, §4, §5, §6

[5] = tested on: S. marcescens X 100; test: Sensitivity test (agar dilution); type: cell-based, Serratia marcescens
Description: as §1, §2, §3, §4, §5, §6

[6] = tested on: S. maltophilia IID1275; test: Sensitivity test (agar dilution); type: cell-based, Stenotrophomonas maltophilia
Description: as §1, §2, §3, §4, §5, §6

[7] = tested on: M. luteus ATCC9341; test: Sensitivity test (agar dilution); type: cell-based, Micrococcus luteus
Description: as §1, §2, §3, §4, §5, §6

[8] = tested on: C. freundii GN346; test: Sensitivity test (agar dilution); type: cell-based, Citrobacter freundii
Description: as §1, §2, §3, §4, §5, §6

[9] = tested on: B. subtilis ATCC6633; test: Sensitivity test (agar dilution); type: cell-based, Bacillus subtilis
Description: as §1, §2, §3, §4, §5, §6

[10] = tested on: E. coli NIHJ JC-2; test: Sensitivity test (agar dilution); type: cell-based, Escherichia coli
Description: as §1, §2, §3, §4, §5, §6

[11] = tested on: E. coli ML1410; test: Sensitivity test (agar dilution); type: cell-based, Escherichia coli; details: alone
Description: as §1, §2, §3, §4, §5, §6

[12] = tested on: P. mirabiris GN2425; test: Sensitivity test (agar dilution); type: cell-based, Proteus mirabilis
Description: as §1, §2, §3, §4, §5, §6

[13] = tested on: 18 bacteria (27 standard strains); test: Sensitivity test, combination effect over the standard strains; type: cell-based; details: in combination with compound 1, standard strains
Description: as §1, §2, §3, §5, §6

[14] = tested on: E. coli ML1410 RP4; test: microbe, parasite or virus in culture; type: cell-based, Escherichia coli; details: alone
Description: as §1, §2, §3, §4, §5, §6

[15] = tested on: S. aureus MS94088 (hetero-MRSA); test: Sensitivity test (agar dilution); type: cell-based, Staphylococcus aureus
Description: as §1, §2, §3, §4, §5, §6

[16] = tested on: S. aureus 209P; test: Sensitivity test (agar dilution); type: cell-based, Staphylococcus aureus
Description: as §1, §2, §3, §4, §5, §6

[17] = tested on: S. aureus SP-7928 (homo-MRSA); test: Sensitivity test (agar dilution); type: cell-based, Staphylococcus aureus
Description: as §1, §2, §3, §4, §5, §6

[18] = tested on: E. faecalis ATCC19433; test: Sensitivity test (agar dilution); type: cell-based, Enterococcus faecalis
Description: as §1, §2, §3, §4, §5, §6

[19] = tested on: P. aeruginosa TL-2667; test: Sensitivity test (agar dilution); type: cell-based, Pseudomonas aeruginosa
Description: as §1, §2, §3, §4, §5, §6

[20] = tested on: P. aeruginosa TL-2666; test: Sensitivity test (agar dilution); type: cell-based, Pseudomonas aeruginosa
Description: as §1, §2, §3, §4, §5, §6

[21] = tested on: P. aeruginosa IFO3451; test: Sensitivity test (agar dilution); type: cell-based, Pseudomonas aeruginosa
Description: as §1, §2, §3, §4, §5, §6

[22] = tested on: S. epidermidis IAM1296; test: Sensitivity test (agar dilution); type: cell-based, Staphylococcus epidermidis
Description: as §1, §2, §3, §4, §5, §6

[23] = tested on: K. pneumoniae ATCC10031; test: Sensitivity test (agar dilution); type: cell-based, Klebsiella pneumoniae
Description: as §1, §2, §3, §4, §5, §6

[24] = tested on: E. aerogenes ATCC13048; test: Sensitivity test (agar dilution); type: cell-based, Enterobacter aerogenes
Description: as §1, §2, §3, §4, §5, §6

[25] = tested on: P. vulgaris GN7919; test: Sensitivity test (agar dilution); type: cell-based, Proteus vulgaris
Description: as §1, §2, §3, §4, §5, §6

[26] = tested on: P. vurgalis OX-19; test: Sensitivity test (agar dilution); type: cell-based, Proteus vulgaris
Description: as §1, §2, §3, §4, §5, §6

[27] = tested on: M. catarrhalis ATCC25238; test: Sensitivity test (agar dilution); type: cell-based, Moraxella catarrhalis
Description: as §1, §2, §3, §4, §5, §6

[28] = tested on: M. catarrhalis ATCC8176; test: Sensitivity test (agar dilution); type: cell-based, Moraxella catarrhalis
Description: as §1, §2, §3, §4, §5, §6

With `C[C@@H](O)[C@H]1C(=O)N2C(C(=O)O)=C(SCCN=CN)C[C@H]12` [IPM, imipenem] the MIC ([1]; Concomitant (IPM:SM = 1:1)) was “≦0.002 μg/ml”, the MIC ([1]; alone) was “≦0.002 μg/ml” and the MIC ([2]; Concomitant (IPM:SM = 1:1)) was 0.125 µg/mL. The MIC ([2]; alone) was 4 µg/mL, the MIC ([3]; Concomitant (IPM:SM = 1:1)) was 0.125 µg/mL and the MIC ([3]; alone) was 0.125 µg/mL. For the same compound, the MIC ([4]; Concomitant (IPM:SM = 1:1)) was 0.25 µg/mL, the MIC ([4]; alone) was 0.25 µg/mL and the MIC ([5]; Concomitant (IPM:SM = 1:1)) was 0.125 µg/mL. The MIC ([5]; alone) was 0.25 µg/mL, the MIC ([6]; Concomitant (IPM:SM = 1:1)) was over 32 µg/mL and the MIC ([6]; alone) was over 32 µg/mL. For the same compound, the MIC ([7]; Concomitant (IPM:SM = 1:1)) was 0.004 µg/mL, the MIC ([7]; alone) was 0.024 µg/mL and the MIC ([8]; Concomitant (IPM:SM = 1:1)) was 0.25 µg/mL. For the same compound, the MIC ([8]; alone) was 0.5 µg/mL, the MIC ([9]; Concomitant (IPM:SM = 1:1)) was “≦0.002 μg/ml” and the MIC ([9]; alone) was 0.016 µg/mL. For the same compound, the MIC ([10]; Concomitant (IPM:SM = 1:1)) was 0.063 µg/mL, the MIC ([10]; alone) was 0.125 µg/mL and the MIC [11] was 0.25 µg/mL. For the same compound, the MIC ([12]; Concomitant (IPM:SM = 1:1)) was 0.25 µg/mL, the MIC ([12]; alone) was 1 µg/mL and the combination effect [13] was “the combination effect was recognized”. It also gave an MIC [14] of 0.5 µg/mL, an MIC ([15]; Concomitant (IPM:SM = 1:1)) of 0.25 µg/mL and an MIC ([15]; alone) of 0.125 µg/mL. The MIC ([16]; Concomitant (IPM:SM = 1:1)) was 0.004 µg/mL, the MIC ([16]; alone) was 0.008 µg/mL and the MIC ([17]; Concomitant (IPM:SM = 1:1)) was 2 µg/mL. It also gave an MIC ([17]; alone) of over 32 µg/mL, an MIC ([18]; Concomitant (IPM:SM = 1:1)) of 0.5 µg/mL and an MIC ([18]; alone) of 1 µg/mL. The MIC ([19]; Concomitant (IPM:SM = 1:1)) was 8 µg/mL, the MIC ([19]; alone) was 8 µg/mL and the MIC ([20]; Concomitant (IPM:SM = 1:1)) was 1 µg/mL. It also gave an MIC ([20]; alone) of 2 µg/mL, an MIC ([21]; Concomitant (IPM:SM = 1:1)) of 0.5 µg/mL and an MIC ([21]; alone) of 1 µg/mL. For the same compound, the MIC ([22]; Concomitant (IPM:SM = 1:1)) was 0.016 µg/mL, the MIC ([22]; alone) was 0.25 µg/mL and the MIC ([23]; Concomitant (IPM:SM = 1:1)) was 0.031 µg/mL. For the same compound, the MIC ([23]; alone) was 0.125 µg/mL, the MIC ([24]; Concomitant (IPM:SM = 1:1)) was 0.125 µg/mL and the MIC ([24]; alone) was 0.25 µg/mL. It also gave an MIC ([25]; Concomitant (IPM:SM = 1:1)) of 0.5 µg/mL, an MIC ([25]; alone) of 1 µg/mL and an MIC ([26]; Concomitant (IPM:SM = 1:1)) of 0.063 µg/mL. For the same compound, the MIC ([26]; alone) was 1 µg/mL, the MIC ([27]; Concomitant (IPM:SM = 1:1)) was “≦0.002 μg/ml” and the MIC ([27]; alone) was 0.008 µg/mL. The MIC ([28]; Concomitant (IPM:SM = 1:1)) was “≦0.002 μg/ml” and the MIC ([28]; alone) was 0.008 µg/mL.
